Laboratory results taken from patent publication EP4706404A1, “MICROENCAPSULATED NATURAL PRESERVATIVE AND ANTIOXIDANT FOR FATTY FOODS, WITH WALNUT HUSK AND WALNUT TREE LEAF EXTRACT” (Universidad Andres Bello, priority 2023, dated 2024).
Like-named read-outs stand apart in the source and are kept apart here.

Columns and labels:
S. aureus = details: mayonnaise
Salmonella = details: mayonnaise
Excerpt: (§1) Mayonnaise was made on a laboratory scale using mayonnaise powder, the flowchart is shown in Diagram 3. [formula]
(§2) Where the stability of mayonnaise without any antioxidant (control) was studied, the stability when using a frequently used synthetic antioxidant such as EDTA, and a microparticle of the invention for foods with more than 70% fat, which corresponds to Maltodextrin with capsule as a channeling agent (EH:MD-Capsule). The dose used was in accordance with the food safety regulations (FSR) and corresponded to 5.5 g of microparticles per 2 kilos of mayonnaise. […] Table 9. Mayonnaise formulation for stability tests.

[1] = system: mesophilic aerobic microorganisms (AMR); details: mayonnaise
Excerpt: as §1, §2

Method for HEPG-2: The test consisted of evaluating the cytotoxic effect of walnut husk and leaf extract, in different concentrations, on viability in cell culture. For this, the HEPG-2 line was used as a cell matrix, which are immortalized human liver cells.
To evaluate the effect on viability in cell culture, an assay was performed with the Invitrogen MTT kit (Ref.V13154; lot:1924421), whose technique consists of a colorimetric analysis that measures the metabolic activity of the cell. This assay was carried out following the protocol provided by the kit supplier, using a 96-well plate with HEPG-2 cell culture with an approximate confluence of 80%. Taking the cytotoxic compound SDS 0.2% as a positive control and the cell culture with its medium as a negative control.

SMILES: CCCCCCCCCCCCOS(=O)(=O)[O-].[Na+] [SDS]
- Cell viability (HEPG-2): 22.9%
- Cell viability (Caco-2 cells): 3.94± 0.2%

SMILES: O=C(O)CN(CCN(CC(=O)O)CC(=O)O)CC(=O)O [synthetic, EDTA]
- day from which S. aureus develops (S. aureus; 4°C): 20 days
- S. aureus Title (S. aureus; 4°C, 6 days refrigeration): 0 CFU/gr
- S. aureus Title (S. aureus; 4°C, 13 days refrigeration): 0 CFU/gr
- S. aureus Title (S. aureus; 4°C, 27 days refrigeration): 1.15 x 10^4 CFU/gr
- S. aureus Title (S. aureus; Time 0): 0 CFU/gr
- Salmonella Title (Salmonella; 4°C, 6 days refrigeration): 0 CFU/gr
- Salmonella Title (Salmonella; 4°C, 13 days refrigeration): 0 CFU/gr
- Salmonella Title (Salmonella; 4°C, 20 days refrigeration): 0 CFU/gr
- Salmonella Title (Salmonella; 4°C, 27 days refrigeration): 0 CFU/gr
- Salmonella Title (Salmonella; Time 0): 0 CFU/gr
- day of conservation from which AMR were detected ([1]; 4°C): 20 days
- AMR Title ([1]; 4°C, 6 days refrigeration): 0 CFU/gr
- AMR Title ([1]; 4°C, 13 days refrigeration): 0 CFU/gr
- AMR Title ([1]; 4°C, 20 days refrigeration): 2x10^4 CFU/gr
- AMR Title ([1]; 4°C, 27 days refrigeration): 1.25 x 10^5 CFU/gr
- AMR Title ([1]; Time 0): 0 CFU/gr
